The record followed here is PubChem BioAssay AID463204 (Broad Institute, 2010).

Active and inactive are the calls of the source.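 Rule for the calls: active = AC50 no more than ten times the top concentration tested, that is within one log above it; inconclusive = flat curve fit with activity between 30% and 70%, or invalid poor fit; inactive = AC50 beyond ten times the top tested dose.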 Where only a bound is given, the exact number is not on record here.

The test system of the assay is S. cerevisiae Mot1-301 ts growth rescue, BacTiter-Glo ATP luminescence. The experiment in a line: restored Mot1-301 yeast growth at 38.5C – whole organism, S. cerevisiae, Mot1-301 ts mutant, luminescence, dose retest, SUMOylation pathway inhibitor project, confirmation (AID 463204).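 Note: growth at restrictive 38.5 degrees C of Mot1-301 OY566 strain; actives raise luminescence by restoring growth of the ts mutant at high temperature.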
Consider `CS(=O)(=O)N(CC(=O)N1CCN(c2ccccc2F)CC1)C1CCCCC1`, for which the AC50 is > 42 µM (inactive).

As to `C=CCNC(=O)NC(=O)COC(=O)CCCSc1nc2ccccc2[nH]1`, the AC50 is > 42 µM (inactive).

In the case of `CN=C1SC(CC(=O)Nc2sc3c(c2C#N)CCCC3)C(=O)N1C` (stereo not drawn), the AC50 is > 42 µM (inactive).

For the molecule `O=C(CSc1cccc2cccnc12)Nc1cc(C(=O)O)cc(C(=O)O)c1`, the AC50 is > 42 µM (inactive).

Take `CCCNC(=O)Cn1sc2nc(C)cc(C)c2c1=O`: the AC50 is > 42 µM (inactive).

For `CC(Oc1ccc([N+](=O)[O-])cc1)C(=O)NCCCN1CCOCC1` (stereo not drawn), the AC50 was > 42 µM (inactive).

With `O=C(COC(=O)C1COc2ccccc2O1)NC1CCS(=O)(=O)C1` (stereo not drawn), the AC50 was > 42 µM (inactive).

Consider `CCOc1ccc(N(CC)S(=O)(=O)c2cccc3nsnc23)cc1`, for which the AC50 is > 42 µM (inactive).

Take `O=C(NC1CCCCCC1)C1CCN(S(=O)(=O)c2cccc3cccnc23)CC1`: the AC50 was > 42 µM (inactive).

In the case of `Cc1ccc(C)c(OCCCC(=O)N2CCOCC2)c1`, the AC50 was > 42 µM (inactive).

As to `COc1ccc(CN2CC(=O)N(c3ccccc3C)C2=S)cc1OC`, the AC50 was > 42 µM (inactive).

Take `Cc1cc(C)c[n+](-c2nc3ccccc3nc2[N-]S(=O)(=O)c2ccc(Br)s2)c1`: the AC50 is > 42 µM (inactive).

As for `CCCCn1c(=O)[nH]c(=O)c2c1nc(COc1ccc(C#N)cc1)n2CCC`, the AC50 was > 42 µM (inactive).

`CCOC(=O)c1oc2ccccc2c1COC(=O)CNC(=O)c1cccc(C)c1`: the AC50 was > 42 µM (inactive).

Take `COc1nc(OC)nc(N2CCC(C(=O)NC3CCCCCC3)CC2)n1`: the AC50 is > 42 µM (inactive).

As for `Cc1nc(C)n(CC(=O)N2CCCC(C(=O)c3cccc4ccccc34)C2)n1` (stereo not drawn), the AC50 was > 42 µM (inactive).

As for `Cc1csc(=O)n1CC(=O)OCC(=O)Nc1cc([N+](=O)[O-])ccc1Cl`, the AC50 is > 42 µM (inactive).

As to `Cc1ccccc1Cn1cc(NC(=O)c2cc3nc(-c4ccco4)cc(C(F)(F)F)n3n2)cn1`, the AC50 is > 42 µM (inactive).

With `CCNc1ccc(S(=O)(=O)N(C)C)cc1NCC(=O)Nc1ccccc1Br`, the AC50 is > 42 µM (inactive).

As for `O=C(Nc1ccc2nc(-c3ccc4nc[nH]c4c3)[nH]c2c1)c1cccs1`, the AC50 is > 42 µM (inactive).

For the molecule `Nc1nnnn1CC(=O)N/N=C/c1cccs1`, the AC50 was > 42 µM (inactive).

For `COc1ccc(-c2cc(C#N)nc(N3CCN(c4ccccc4)CC3)n2)cc1`, the AC50 is > 42 µM (inactive).

Turning to `S=C(NCCc1c[nH]c2ccccc12)NC1CC1`, the AC50 was > 42 µM (inactive).

Regarding `O=C(NC(=S)Nc1ccccc1N1CCCC1)c1ccc([N+](=O)[O-])cc1`, the AC50 is > 42 µM (inactive).

Turning to `O=C(CNC(=O)c1ccco1)OCC(=O)c1cccc2ccccc12`, the AC50 is > 42 µM (inactive).

With `N/C(=N\OC(=O)CCC1CCCC1)c1ccc([N+](=O)[O-])cc1`, the AC50 was > 42 µM (inactive).

As to `O=C(Nc1ccc2ccccc2c1)N1CCCN(CCOc2ccccc2)CC1`, the AC50 was > 42 µM (inactive).

As to `Cc1cc(C#Cc2c(-c3ccccc3)n(C)c3ccccc23)ccc1F`, the AC50 was > 42 µM (inactive).

For the molecule `O=C(CCl)N(Cc1cc(=O)[nH]c2ccccc12)c1ccccc1`, the AC50 is > 42 µM (inactive).

In the case of `CCOc1ccc(N(C(C)C(=O)NC(C)CC)S(C)(=O)=O)cc1` (stereo not drawn), the AC50 was > 42 µM (inactive).

With `COc1ccc(C(=O)O)cc1S(=O)(=O)NCCN(C)C`, the AC50 was > 42 µM (inactive).

For `O=C(CN1CCc2ccccc21)NN1CC(=O)N(c2ccc(Cl)cc2)CC1=O`, the AC50 was > 42 µM (inactive).

On to `CCOC(=O)c1sc(NC(=O)CSc2n[nH]c(-c3ccccc3)n2)c(C#N)c1C`, for which the AC50 is 20.6 µM.

On to `Clc1ccc(CNCc2cccs2)cc1Cl`, for which the AC50 is > 42 µM (inactive).

With `O=C(CN1CCN(c2nc(-c3ccccc3)cs2)CC1)NNC(=O)c1ccc(Br)cc1`, the AC50 was > 42 µM (inactive).

Turning to `C=CCn1c(-c2ccc(OC)cc2)nc2ccccc21`, the AC50 is > 42 µM (inactive).

`O=C(COC(=O)CNC(=O)c1ccc(Cl)cc1)Nc1ncc(C(F)(F)F)cc1Cl`: the AC50 is > 42 µM (inactive).

`CN1C(=O)c2ccc(NC(=S)NC(=O)C(C)(C)C)cc2C1=O`: the AC50 is > 42 µM (inactive).

For the molecule `CCNC(=O)COc1ccc(S(=O)(=O)Nc2ccccc2)cc1`, the AC50 is > 21 µM (inactive).

For `COc1cc(C(C2=C(O)CC(C)(C)CC2=O)C2C(=O)CC(C)(C)CC2=O)cc(OC)c1OC` (stereo not drawn), the AC50 is > 42 µM (inactive).

On to `CN1C2CCC1CC(OC(=O)c1ccc([N+](=O)[O-])cc1)C2` (stereo not drawn), for which the AC50 is > 42 µM (inactive).

In the case of `CCC1=Nc2cc(C(=O)NCc3ccco3)ccc2Sc2ccccc21`, the AC50 is > 42 µM (inactive).

Take `COC(=O)/C=C\C(=O)Nc1cccc([N+](=O)[O-])c1`: the AC50 is 2.95 µM.

On to `COc1ccccc1NS(=O)(=O)c1cc(Cl)ccc1OC`, for which the AC50 was > 42 µM (inactive).

On to `CCOc1ccc(C(=O)NNC2CC(=O)N(CCc3ccccc3)C2=O)cc1OC` (stereo not drawn), for which the AC50 was > 42 µM (inactive).

Turning to `Cn1c(=O)nc2n(Cc3ccccc3)c3ccccc3cc-2c1=O`, the AC50 is > 42 µM (inactive).

As for `OC(c1ccccc1)(C1CCCCC1)C(CN1CCOCC1)c1ccccc1` (stereo not drawn), the AC50 is 13.9 µM.

Regarding `Cc1ccc(NC2CC(=O)N(c3ccc(N4CCCCC4)cc3)C2=O)cc1` (stereo not drawn), the AC50 is > 21 µM (inactive).

On to `CN(C(=O)COC(=O)c1cc(-c2ccc(Cl)s2)nc2ccccc12)C1CCS(=O)(=O)C1` (stereo not drawn), for which the AC50 was > 42 µM (inactive).

Consider `O=C(CSc1cccc[n+]1[O-])N1CCc2ccccc21`, for which the AC50 is > 42 µM (inactive).

Turning to `CCOC(=O)CS(=O)(=O)c1ccc2ccccc2c1`, the AC50 was > 42 µM (inactive).

For `COc1ccc(NC(=O)CN(C)C(=O)c2cc(C)on2)cc1`, the AC50 was > 42 µM (inactive).

For the molecule `O=C1CC(N(CCc2ccccc2)C(=S)Nc2ccccc2)C(=O)N1c1ccc(F)cc1` (stereo not drawn), the AC50 is > 42 µM (inactive).

In the case of `Cc1nc(-c2ccc(Cl)cc2)sc1C1(C)CC(c2c(Cl)cccc2Cl)=NO1` (stereo not drawn), the AC50 was > 42 µM (inactive).

For `O=c1cnc2ccccc2n1Cc1ccccc1C(F)(F)F`, the AC50 was > 42 µM (inactive).

Regarding `Cc1cc(NC(=O)CCC(=O)N(c2cccnc2)C(C(=O)NC2CCCC2)c2ccccc2)no1` (stereo not drawn), the AC50 is > 42 µM (inactive).

Take `COc1ccc(N(CC(=O)NCc2ccc(C)cc2)S(=O)(=O)c2c(C)nn(C)c2C)cc1`: the AC50 was > 42 µM (inactive).

Turning to `Cc1n[nH]c(C)c1S(=O)(=O)N(CC(=O)NC1CCCC1)c1ccc(C(C)C)cc1`, the AC50 is > 21 µM (inactive).

Regarding `COc1ccc(CC(=O)NCCN2CCOCC2)cc1`, the AC50 is > 42 µM (inactive).

For the molecule `O=C(CCC1CCCN(C(=O)Cc2cccc(F)c2)C1)N1CCN(c2ccccn2)CC1` (stereo not drawn), the AC50 is > 42 µM (inactive).

For `COc1ccccc1NC(=O)CSc1nc(O)c(Cc2ccccc2)c(=O)[nH]1`, the AC50 is > 42 µM (inactive).

As to `NC(=O)C1=C[C@@H](c2ccc(Br)cc2)C[C@@H](OCCCCO)O1`, the AC50 is > 42 µM (inactive).

Regarding `CCC(C)NCCCCOc1cc(C)cc(C(C)C)c1` (stereo not drawn), the AC50 was > 42 µM (inactive).

Turning to `CN(c1ccccc1)S(=O)(=O)c1ccc(C(=O)NCC2CCCO2)cc1` (stereo not drawn), the AC50 is > 21 µM (inactive).

In the case of `NC(=O)c1ccccc1NC(=O)c1ccc2c(c1)OCO2`, the AC50 is > 42 µM (inactive).

As for `CCOc1ccc(Cn2c(SCCCCC#N)nc3c2c(=O)n(C)c(=O)n3C)cc1OCC`, the AC50 is > 42 µM (inactive).

Take `CN(C)CCNC(=O)c1scc2c1CCCC2`: the concentration at half-maximal activity (AC50) was 29.2 µM.

For `COc1ccc(OC)c(NC(=O)CNC(=O)Cn2ccc3ccccc3c2=O)c1`, the AC50 was > 42 µM (inactive).

As for `CCOc1ccc(/C=N/NS(=O)(=O)c2ccc(C)cc2)cc1OC`, the AC50 is > 42 µM (inactive).

For `CC(=O)c1cccc(CN2CCCC(N3CCN(c4ccccc4F)CC3)C2)c1` (stereo not drawn), the AC50 is > 42 µM (inactive).

With `N#CC(C#N)=CN=c1ccn(Cc2ccc(Cl)cc2Cl)cc1`, the AC50 was > 42 µM (inactive).

With `Cc1nc2ccccc2c(=O)n1CC(=O)N1CCOCC1`, the AC50 was > 42 µM (inactive).

Consider `Clc1ccc(CONc2ncnc3nonc23)c(Cl)c1`, for which the AC50 is 5.49 µM.

For the molecule `CC(C)N(C(=S)Nc1cccc(S(=O)(=O)N(C)C)c1)c1ccccc1`, the AC50 was > 42 µM (inactive).

As to `CCN(CC)CCNC(=O)CCn1c(=S)[nH]c2cc3c(cc2c1=O)OCO3`, the AC50 is > 110 µM (inactive).

In the case of `COCCn1c(C)cc(C(=O)CN2C(=O)NC3(CCCCCCC3)C2=O)c1C`, the AC50 was > 42 µM (inactive).

With `COc1ccccc1/C=C/C(=O)NC(=S)N1CCOCC1`, the AC50 is > 42 µM (inactive).

For the molecule `Cn1cc(Br)c(C(=O)Nc2nccs2)n1`, the AC50 was > 42 µM (inactive).

As to `CCC1CCCCN1CCCNC(=O)C1CCC(CNS(=O)(=O)c2c(C)cc(C)cc2C)CC1` (stereo not drawn), the AC50 was > 42 µM (inactive).

Take `Nc1nc(SCc2nc3scc(-c4cccs4)c3c(=O)[nH]2)n[nH]1`: the AC50 was > 42 µM (inactive).

Consider `Cc1cccc(C)c1NC(=O)C1(N(Cc2ccco2)C(=O)CC2NC(=O)NC2=O)CCCCC1` (stereo not drawn), for which the AC50 was > 42 µM (inactive).

Turning to `COc1ccc(OC)c2c(N)c(C#N)c(C(F)(F)C(F)(F)F)nc12`, the AC50 is > 42 µM (inactive).

Regarding `CSCC[C@H](NC(=O)CC(C)(C)C)c1nc2ccccc2[nH]1`, the AC50 was > 42 µM (inactive).

Turning to `CCOC(=O)CN1NC2(CCC(C(C)(C)C)CC2)NC1=S` (stereo not drawn), the AC50 was > 42 µM (inactive).

For `Cc1cc(C(F)F)n2ncc(C(=O)NCCc3ccc(Cl)cc3)c2n1`, the AC50 is > 42 µM (inactive).

Regarding `COc1ccccc1N1CCN(CCN2C(=O)C3CCCCN3C2=O)CC1` (stereo not drawn), the AC50 is > 42 µM (inactive).

Take `CC(C)C(=O)NNc1ccc(C(F)(F)F)cn1`: the AC50 was > 42 µM (inactive).

For `CSc1ccc(CN2CCN(S(=O)(=O)Cc3ccccc3)CC2)cc1`, the AC50 was > 42 µM (inactive).

What is called AC50 is the concentration giving half of the maximal activity seen.
